Results as given in the NIST ThermoML archive (doi:10.1016/j.jct.2017.03.006).

Assay: xn = mol fraction of the nth substance listed
Details: 273.15 K, Liquid, Vibrating tube method

Cc1ccc(C)c(C)c1 [1,2,4-trimethylbenzene] + CCCCO
mass density [kg/m3]
Details | x2 = 0 | x2 = 0.1005 | x2 = 0.2261 | x2 = 0.2999 | x2 = 0.3966 | x2 = 0.5289 | x2 = 0.6367 | x2 = 0.7249 | x2 = 0.7977 | x2 = 0.9131
100 kPa | 891.7 | 886.7 | 880.3 | 876.4 | 870.8 | 862.9 | 855.6 | 849.2 | – | 833.3
1000 kPa | 892.3 | 887.1 | 880.5 | 876.7 | 871.1 | 863.2 | 855.9 | 849.5 | 843.7 | 833.7
5000 kPa | 894.6 | 889.5 | 883 | 879.2 | 873.6 | 865.7 | 858.5 | 852.1 | 846.3 | 836.3
10000 kPa | 897.4 | 892.4 | 885.9 | 882.1 | 876.6 | 868.8 | 861.5 | 855.2 | 849.4 | 839.4
20000 kPa | 902.8 | 897.9 | 891.4 | 887.7 | 882.2 | 874.4 | 867.2 | 860.8 | 855.2 | 845.3
30000 kPa | 908 | 903.1 | 896.7 | 893 | 887.5 | 879.7 | 872.6 | 866.3 | 860.6 | 850.8
40000 kPa | 912.9 | 908 | 901.7 | 897.9 | 892.5 | 884.8 | 877.7 | 871.4 | 865.8 | 856
50000 kPa | 917.5 | 912.6 | 906.3 | 902.7 | 897.3 | 889.6 | 882.5 | 876.2 | 870.6 | 860.9
60000 kPa | 921.9 | – | – | – | – | – | – | – | – | –
